Experiment [1] concerns rat primary hippocampal neurons injured with Aβ 1-42. In words: Neurite network of MAP-2 neurons in primary culture of hippocampal neurons injured with Aβ 1-42. It is filed as cell-based. The note with it: for Neurite network / Neurite/neuron: Aβ1-42 20 μM/2.5 μM, percentage of control, Example 3. The procedure: Rat hippocampal neurons were cultured as described by Callizot et al. (2013) J. Neurosci. Res. 91706-716. Pregnant female rats of 17 days gestation (Rats Wistar; Janvier Labs France) were killed using a deep anesthesia with CO2 chamber followed by a cervical dislocation. Then, fetuses were removed from the uterus and immediately placed in ice-cold L15 Leibovitz medium with a 2% penicillin (10,000 U/ml) and streptomycin (10 mg/ml) solution (PS) and 1% bovine serum albumin (BSA). Hippocampal neurons were treated for 20 min at 37° C. with a trypsin-EDTA solution at a final concentration of 0.05% trypsin and 0.02% EDTA. The dissociation was stopped by adding Dulbecco's modified Eagle's medium (DMEM) with 4.5 g/l of glucose, containing DNAse I grade 11 (final concentration 0.5 mg/ml) and 10% fetal calf serum (FCS). Cells were mechanically dissociated by three forced passages through the tip of a 10-ml pipette and then centrifuged at 515×g for 10 min at 4° C. The supernatant was discarded, and the pellet was resuspended in a defined culture medium consisting of Neurobasal medium with a 2% solution of B27 supplement, 2 mmol/l of L-glutamine, 2% of PS solution, and 10 ng/ml of brain-derived neurotrophic factor (BDNF). Viable cells were counted in a Neubauer cytometer, using the trypan blue exclusion test. […] The medium was changed every 2 days.
The hippocampal neurons were exposed with Aβ solutions (see below) after 17 days of culture. The Aβ1-42 preparation was done following the procedure described by Callizot et al. (2013) J. Neurosci. Res. 91706-716. Briefly, Aβ1-42 peptide was dissolved in the defined culture medium mentioned above, at an initial concentration of 40 μM. This solution was gently agitated for 3 days at 37° C. in the dark and immediately used after being properly diluted in culture medium to the concentrations used (20 μM (plate 1) or 2.5 μM (plate 2) corresponding to 2 μM or 0.25 μM of oligomers (AβO) respectively).
Donecopride fumarate was solved in culture medium and preincubated 1 h before Aβ application. Aβ1-42 preparation was added to a final concentration of 20 or 2.5 μM (=2 μM or 0.25 μM of AβO, evaluated by automatic Western Blot) diluted in control medium in presence of Donecopride.
Donecopride fumarate (Donecopride) was tested on one culture in a 96 well plate (6 wells per conditions). The compound was preincubated one hour before […] application. The following conditions were assessed:
After permeabilization with 0.1% of saponin, cells were incubated for 2 h with:
a) chicken polyclonal antibody anti microtubule-associated-protein 2 (MAP-2), diluted at 1/1000 in PBS containing 1% fetal calf serum and 0.1% of saponin (this antibody allows the specific staining of neuronal cell bodies and neurites; and allow the study of neuronal cell death and neurite network).
For each condition, 30 pictures (representative of the whole well area) per well were taken using ImageXpress (Molecular Devices) at 20× magnification. All images were taken with the same acquisition parameters. Analyses were performed automatically by using Custom Module Editor (Molecular Devices).
Neurite network (in μm of MAP-2 positive neurons)
The neurite network is proportional to the number of neurons in the culture. The total neurite network was normalized by the number of neurons, in order to determine the average length of neurite per neurons.
Rat hippocampal neurons were cultured as described by Callizot et al. (2013) J. Neurosci. Res. 91:706-716. Briefly, pregnant female rats of 17 days gestation (Rats Wistar; Janvier Labs France) were killed using a deep anesthesia with CO2 chamber and a cervical dislocation. Then, fetuses were removed from the uterus and immediately placed in ice-cold L15 Leibovitz medium with a 2% penicillin (10,000 U/ml) and streptomycin (10 mg/ml) solution (PS) and 1% bovine serum albumin (BSA). The hippocampi were treated for 20 min at 37° C. with a trypsin-EDTA solution at a final concentration of 0.05% trypsin and 0.02% EDTA. […]

Experiment [2] concerns 5XFAD mice. As to the kind of experiment: Novel object recognition test in chronically treated 5XFAD mice. It is filed as in vivo, mouse. The note with it: 5XFAD females; 1 mg/kg twice a week for 3 months; 24 h interval between training and test. The procedure:
(§1) 5XFAD mice received chronic treatments with drugs or vehicle according to 2 different protocols. In each experiment, drugs or vehicle solution were administered i.p. twice a week (1 mg/kg). In “Protocol 1”, mice (n=6-7 mice per group) were treated with compounds for two months, from 2 to 4 months of age. In “Protocol 2”, mice (n=7) were treated with compounds for three months, from 1 month to 4 months of age. At the end of each protocol, mice were anesthetized with a mixture of 100 mg/kg ketamine and 10 mg/kg xylazine in saline solution and perfused transcardially with PBS. Brains were quickly isolated on ice, the olfactory bulbs and cerebellum removed and the two hemispheres divided. One hemisphere was frozen on dry ice and stored at −80° C. for biochemical analysis, while the other was post-fixed in 4% PFA for immunohistochemistry (IHC).
(§2) 28 female 5XFAD mice (C57BL/6J genetic background) were used in this study. Mice received vehicle or compounds (1 mg/kg) i.p., twice a week for three months, from 1 to 4 months of age.

In experiment [3] the test system is 5XFAD mice. In words: Aβ42 concentration in cerebrospinal fluid of chronically treated 5XFAD mice. The settings on record: 1 mg/kg twice a week for 3 months, versus controls. The class given is in vivo, mouse. The procedure:
as §1, §2

Molecules are shown by their SMILES. Marks after values point to notes of the source that are not given here.

Take `COc1cc2c(cc1OC)C(=O)C(CC1CCN(Cc3ccccc3)CC1)C2` (centres unmarked) [Donepezil]: the Neurite network in experiment [1] (donepezil 100 pM) is on record as 68%; in experiment [1] (donepezil 1 nM), 75%*; in experiment [1] (donepezil 10 nM), 79%*; in experiment [1] (donepezil 50 nM), 85%*; in experiment [1] (donepezil 100 nM), 85%*; in experiment [1] (donepezil 500 nM), 87%*. The results for the Neurite network in experiment [1] (donepezil 1 μM) and in experiment [1] (donepezil 10 μM) were 90%* and 88%*, respectively. Moreover, the Neurite/neuron came to 99% in experiment [1] (donepezil 100 pM); 99% in experiment [1] (donepezil 1 nM); 91% in experiment [1] (donepezil 10 nM); 94% in experiment [1] (donepezil 50 nM); 94% in experiment [1] (donepezil 100 nM); 101% in experiment [1] (donepezil 500 nM). The Neurite/neuron in experiment [1] (donepezil 1 μM) was determined as 105%*; in experiment [1] (donepezil 10 μM), 103%*.
Turning to `CCCCN1CCC(CCC(=O)c2cc(Cl)c(N)cc2OC)CC1` [RS67333, 1-(4-amino-5-chloro-2-methoxy-phenyl)-3-(1-butyl-4-piperidinyl)-1-propanone], the “Recognition memory: time exploring novel versus familiar object (NOR test)” value in the experiment with 5XFAD mice [2] was “reverses cognitive impairment”. In experiment [1] (Aβ 1-42 injured hippocampal neurons, Example 3 step 1), the “Lowest protective active dose: neurite network” value is recorded as 10 nM. For the same molecule, in experiment [1] (RS67333 alone, Aβ 1-42 injured hippocampal neurons, Example 3 step 1), the “Average length of neurites per neurons (FIG. 1C)” value was “protective effects”. Moreover, the “Aβ42 concentration in cerebrospinal fluid (CSF)” value in the experiment on 5XFAD mice [3] was “not significantly different compared to controls”.

The record behind these values is patent publication US20210338647A1, “Combination of Acetylcholinesterase Inhibitor and 5-HT4 Receptor Agonist As Neuroprotective Agent In the Treatment of Neurodegenerative Diseases” (UNIVERSITE DE CAEN NORMANDIE, priority 2018, published 2021).
